In PubChem BioAssay (NCI):
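Dose response: 5 concentrations. Exposure: 48 h. Format: 96-well plates. Endpoint: linear interpolation; highest concentration if not reached. Abbreviation: GI50, concentration required for 50% inhibition of growth. TGI: total growth inhibition.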

Assays:
Experiment in all cases: NCI anticancer screen, dose series, 48 h
SNB-75 CNS = tested on: SNB-75 CNS
MDA-MB-435 = tested on: MDA-MB-435
HCT-116 colon = tested on: HCT-116 colon
LOX IMVI melanoma = tested on: LOX IMVI melanoma
U251 CNS = tested on: U251 CNS
HOP-62 NSCLC = tested on: HOP-62 NSCLC
SN12C renal = tested on: SN12C renal
NCI/ADR-RES ovarian = tested on: NCI/ADR-RES ovarian
HOP-92 NSCLC = tested on: HOP-92 NSCLC
TK-10 renal = tested on: TK-10 renal
SF-295 CNS = tested on: SF-295 CNS
OVCAR-5 ovarian = tested on: OVCAR-5 ovarian
RXF 393 renal = tested on: RXF 393 renal
IGROV1 ovarian = tested on: IGROV1 ovarian
SR leukemia = tested on: SR leukemia
SK-MEL-28 melanoma = tested on: SK-MEL-28 melanoma
SK-MEL-5 melanoma = tested on: SK-MEL-5 melanoma
SK-MEL-2 melanoma = tested on: SK-MEL-2 melanoma
M14 melanoma = tested on: M14 melanoma
EKVX NSCLC = tested on: EKVX NSCLC
DU-145 prostate = tested on: DU-145 prostate
UO-31 renal = tested on: UO-31 renal
SW-620 colon = tested on: SW-620 colon
UACC-257 melanoma = tested on: UACC-257 melanoma
HT29 colon = tested on: HT29 colon
KM12 colon = tested on: KM12 colon
SK-OV-3 ovarian = tested on: SK-OV-3 ovarian
RPMI-8226 leukemia = tested on: RPMI-8226 leukemia

SMILES: O=C(CNc1nc(-c2cccc([N+](=O)[O-])c2)cs1)Nc1cccc([N+](=O)[O-])c1
- TGI (SNB-75 CNS): 2350 nM
- GI50 (MDA-MB-435): 1650 nM
- TGI (MDA-MB-435): 3070 nM
- GI50 (HCT-116 colon): 1240 nM
- TGI (HCT-116 colon): 3180 nM
- GI50 (LOX IMVI melanoma): 577 nM
- TGI (LOX IMVI melanoma): 2040 nM
- GI50 (U251 CNS): 1710 nM
- TGI (U251 CNS): 5000 nM
- GI50 (HOP-62 NSCLC): 1980 nM
- TGI (HOP-62 NSCLC): 4130 nM
- GI50 (SN12C renal): 1740 nM
- TGI (SN12C renal): 5030 nM
- GI50 (NCI/ADR-RES ovarian): 1470 nM
- TGI (NCI/ADR-RES ovarian): 4590 nM
- GI50 (HOP-92 NSCLC): 1700 nM
- TGI (HOP-92 NSCLC): 4000 nM
- GI50 (TK-10 renal): 1530 nM
- TGI (TK-10 renal): 5820 nM
- GI50 (SF-295 CNS): 2120 nM
- TGI (SF-295 CNS): 5470 nM
- GI50 (OVCAR-5 ovarian): 542 nM
- TGI (OVCAR-5 ovarian): 2370 nM
- GI50 (RXF 393 renal): 522 nM
- TGI (RXF 393 renal): 2070 nM
- GI50 (IGROV1 ovarian): 333 nM
- TGI (IGROV1 ovarian): 1330 nM
- GI50 (SR leukemia): 419 nM
- TGI (SR leukemia): > 100000 nM
- GI50 (SK-MEL-28 melanoma): 1490 nM
- TGI (SK-MEL-28 melanoma): 3080 nM
- GI50 (SK-MEL-5 melanoma): 1790 nM
- TGI (SK-MEL-5 melanoma): 3240 nM
- GI50 (SK-MEL-2 melanoma): 1790 nM
- TGI (SK-MEL-2 melanoma): 3310 nM
- GI50 (M14 melanoma): 1480 nM
- TGI (M14 melanoma): 3060 nM
- GI50 (EKVX NSCLC): 2060 nM
- TGI (EKVX NSCLC): 4740 nM
- GI50 (DU-145 prostate): 2020 nM
- TGI (DU-145 prostate): 4790 nM
- GI50 (UO-31 renal): 1290 nM
- TGI (UO-31 renal): 2670 nM
- GI50 (SW-620 colon): 372 nM
- TGI (SW-620 colon): 2010 nM
- GI50 (UACC-257 melanoma): 1950 nM
- TGI (UACC-257 melanoma): 5080 nM
- GI50 (HT29 colon): 744 nM
- TGI (HT29 colon): 2290 nM
- GI50 (KM12 colon): 1360 nM
- TGI (KM12 colon): 3090 nM
- GI50 (SK-OV-3 ovarian): 871 nM
- TGI (SK-OV-3 ovarian): 2410 nM
- GI50 (RPMI-8226 leukemia): 1470 nM
- TGI (RPMI-8226 leukemia): 4320 nM
